Test results reported in BindingDB's records for doi:10.1021/jm950922q (University of North Carolina at Chapel Hill, 1996).

Molecular target: HIV-RT (HIV reverse transcriptase)
Assay: Inhibitory activity against HIV-RT

CC(C)[C@@H]1CC[C@]2(C(=O)O)CC[C@]3(C)[C@H](CC[C@@H]4[C@@]5(C)CC[C@H](OC(=O)COCC(=O)O)C(C)(C)[C@@H]5CC[C@]43C)[C@@H]12 [(1S,3aS,5aR,5bR,7aR,9S,11aR,11bR,13aR,13bR)-9-(2-Carboxymethoxy-acetoxy)-1-isopropyl-5a,5b,8,8,11a-pentamethyl-icosahydro-cyclopenta[a]chrysene-3a-carboxylic acid]
IC50: > 174 µM

C=C(C)[C@@H]1CC[C@]2(C(=O)O)CC[C@]3(C)[C@H](CC[C@@H]4[C@@]5(C)CC[C@H](O)C(C)(C)[C@@H]5CC[C@]43C)[C@@H]12
IC50: > 219 µM

CC(C)[C@@H]1CC[C@]2(C(=O)O)CC[C@]3(C)[C@H](CC[C@@H]4[C@@]5(C)CC[C@H](OC(=O)CC(C)(C)CC(=O)O)C(C)(C)[C@@H]5CC[C@]43C)[C@@H]12 [3,3-Dimethyl-pentanedioic acid mono-((1S,3aS,5aR,5bR,7aR,9S,11aR,11bR,13aR,13bR)-3a-carboxy-1-isopropyl-5a,5b,8,8,11a-pentamethyl-icosahydro-cyclopenta[a]chrysen-9-yl) ester]
IC50: > 167 µM

C=C(C)[C@@H]1CC[C@]2(C(=O)O)CC[C@]3(C)[C@H](CC[C@@H]4[C@@]5(C)CC[C@H](OC(=O)C(C)(C)CC(=O)O)C(C)(C)[C@@H]5CC[C@]43C)[C@@H]12 [(1R,3aS,5aR,5bR,7aR,9S,11aR,11bR,13aR,13bR)-9-(3-carboxy-2,2-dimethylpropanoyloxy)-5a,5b,8,8,11a-pentamethyl-1-(prop-1-en-2-yl)icosahydro-1H-cyclopenta[a]chrysene-3a-carboxylic acid]
IC50: > 171 µM

C=C(C)[C@@H]1CC[C@]2(C(=O)O)CC[C@]3(C)[C@H](CC[C@@H]4[C@@]5(C)CC[C@H](OC(=O)CC(C)(C)CC(=O)O)C(C)(C)[C@@H]5CC[C@]43C)[C@@H]12 [3,3-Dimethyl-pentanedioic acid mono-((1R,3aS,5aR,5bR,7aR,9S,11aR,11bR,13aR,13bR)-3a-carboxy-1-isopropenyl-5a,5b,8,8,11a-pentamethyl-icosahydro-cyclopenta[a]chrysen-9-yl) ester]
IC50: > 167 µM

C=C(C)[C@@H]1CC[C@]2(C(=O)O)CC[C@]3(C)[C@H](CC[C@@H]4[C@@]5(C)CC[C@H](OC(=O)COCC(=O)O)C(C)(C)[C@@H]5CC[C@]43C)[C@@H]12 [(1R,3aS,5aR,5bR,7aR,9S,11aR,11bR,13aR,13bR)-9-(2-Carboxymethoxy-acetoxy)-1-isopropenyl-5a,5b,8,8,11a-pentamethyl-icosahydro-cyclopenta[a]chrysene-3a-carboxylic acid]
IC50: > 175 µM

CC(C)[C@@H]1CC[C@]2(C(=O)O)CC[C@]3(C)[C@H](CC[C@@H]4[C@@]5(C)CC[C@H](OC(=O)CC(C)(C)C(=O)O)C(C)(C)[C@@H]5CC[C@]43C)[C@@H]12 [2,2-Dimethyl-succinic acid 4-((1S,3aS,5aR,5bR,7aR,9S,11aR,11bR,13aR,13bR)-3a-carboxy-1-isopropyl-5a,5b,8,8,11a-pentamethyl-icosahydro-cyclopenta[a]chrysen-9-yl) ester]
IC50: > 171 µM

CC(C)[C@@H]1CC[C@]2(C(=O)O)CC[C@]3(C)[C@H](CC[C@@H]4[C@@]5(C)CC[C@H](O)C(C)(C)[C@@H]5CC[C@]43C)[C@@H]12 [Dihydrobetulinic acid]
IC50: > 218 µM
